Values quoted from earlier work in PubChem BioAssay AID1259410 (Chemical Carcinogenesis Research Information System (CCRIS), 2018).

Tested on: rodent tumor promotion studies, tumor incidence
Assay: CCRIS tumor promotion studies

For `CCC1(c2ccccc2)C(=O)N=C(O)NC1=O` (stereo not given), the outcome (Carcinogen: 2-(ACETYLAMINO)FLUORINE, Doses [Carcinogen]: 0.02% IN DIET FOR 4 WK, Doses [Promoter]: 0.05% IN DIET FOR 32 WK, Route [Carcinogen]: ORAL, Route [Promoter]: ORAL, Species: RAT, Strain/Sex: F344/MALE) is given as “liver: hepatocellular carcinoma”, the outcome (Carcinogen: DIETHYLNITROSAMINE, 55-18-5, 2-ACETYLAMINOFLUORENE, 6292-55-3, CARBON TETRACHLORIDE, 56-23-5, Carcinogen: DIETHYLNITROSAMINE, 55-18-5, 2-ACETYLAMINOFLUORENE, 6292-55-3, CARBON TETRACHLORIDE, 56-23-5, Doses [Carcinogen]: 200 MG/KG ONCE FOLLOWED 2 WK LATER BY 0.03% 2-ACETYLAMINOFLUORENE IN DIET FOR 2 WK PLUS 2 ML/KG CARBON TETRACHLORIDE IN, Doses [Promoter]: 0.05% IN DIET STARTING 1 WK POST 2-ACETYLAMINOFLUORENE AND CONTINUED FOR 6 MO (STUDY DURATION: 7 MO), Route [Carcinogen]: INTRAPERITONEAL, ORAL, INTRAGASTRIC, Route [Carcinogen]: INTRAPERITONEAL, ORAL, INTRAGASTRIC, Route [Promoter]: ORAL, Species: RAT, Strain/Sex: WISTAR/MALE) is given as “liver: hepatocellular carcinoma” and the outcome (Carcinogen: DIETHYLNITROSAMINE, 55-18-5, Doses [Carcinogen]: 2.5, 10, 25, 50 UG/G IN SALINE ONCE ON DAY 15 OF AGE, Doses [Promoter]: 0, 500 PPM IN DRINKING WATER FROM 28 DAYS OF AGE TO 12, 24, 40 WK POST-WEANING (STUDY DURATION: 42 WK), Route [Carcinogen]: INTRAPERITONEAL, Route [Promoter]: ORAL, Species: MOUSE, Strain/Sex: BALB/MALE) is given as “liver: adenoma”. The outcome (Carcinogen: DIETHYLNITROSAMINE, 55-18-5, N-METHYLNITROSOUREA, 684-93-5, DIHYDROXY-DI-N- PROPYLNITROSAMINE, 53604-64-6, Carcinogen: DIETHYLNITROSAMINE, 55-18-5, N-METHYLNITROSOUREA, 684-93-5, DIHYDROXY-DI-N- PROPYLNITROSAMINE, 53604-64-6, Doses [Carcinogen]: 100 MG/KG IN SALINE AT BEGINNING OF STUDY, 20 MG/KG IN CITRATE BUFFERED SOLUTION ON D 2, 5, 8 AND 11, 0.1% IN DRINKING, Doses [Carcinogen]: 100 MG/KG IN SALINE AT BEGINNING OF STUDY, 20 MG/KG IN CITRATE BUFFERED SOLUTION ON D 2, 5, 8 AND 11, 0.1% IN DRINKING, Doses [Promoter]: 0, 500 PPM IN DIET BEGINNING POST SEQUENTIAL CARCINOGEN TREATMENT AND CONTINUING FOR DURATION OF STUDY (STUDY DURATION:, Route [Carcinogen]: IP, IP, ORAL, Route [Carcinogen]: IP, IP, ORAL, Route [Promoter]: ORAL, Species: RAT, Strain/Sex: F344/MALE) was “thyroid: adenoma”, the outcome (Carcinogen: DIETHYLNITROSAMINE, 55-18-5, N-METHYLNITROSOUREA, 684-93-5, DIHYDROXY-DI-N- PROPYLNITROSAMINE, 53609-64-6, Carcinogen: DIETHYLNITROSAMINE, 55-18-5, N-METHYLNITROSOUREA, 684-93-5, DIHYDROXY-DI-N- PROPYLNITROSAMINE, 53609-64-6, Doses [Carcinogen]: 100 MG/KG IN SALINE AT BEGINNING OF STUDY, 20 MG/KG IN CITRATE BUFFERED SOLUTION ON D 2, 5, 8 AND 11, 0.1% IN DRINKING, Doses [Carcinogen]: 100 MG/KG IN SALINE AT BEGINNING OF STUDY, 20 MG/KG IN CITRATE BUFFERED SOLUTION ON D 2, 5, 8 AND 11, 0.1% IN DRINKING, Doses [Promoter]: 0, 500 PPM IN DIET BEGINNING POST SEQUENTIAL CARCINOGEN TREATMENT AND CONTINUING FOR DURATION OF STUDY (STUDY DURATION:, Route [Carcinogen]: IP, IP, ORAL, Route [Carcinogen]: IP, IP, ORAL, Route [Promoter]: ORAL, Species: RAT, Strain/Sex: F344/MALE) was “thyroid: adenoma” and the outcome (Carcinogen: ETHYLNITROSOUREA, 759-73-9, Doses [Carcinogen]: 5 MG/KG ONCE AT 15 D OF AGE, Doses [Promoter]: 0, 500 PPM IN DRINKING WATER BEGINNING AT 5 WK OF AGE AND CONTINUING TO 51 WK OF AGE (STUDY DURATION: 52 WK), Route [Carcinogen]: INTRAPERITONEAL, Route [Promoter]: ORAL, Species: MOUSE, Strain/Sex: CD-1/FEMALE) was “liver: adenoma”. The outcome (Carcinogen: ETHYLNITROSOUREA, 759-73-9, Doses [Carcinogen]: 5 MG/KG ONCE AT 15 D OF AGE, Doses [Promoter]: 0, 500 PPM IN DRINKING WATER BEGINNING AT 5 WK OF AGE AND CONTINUING TO 51 WK OF AGE (STUDY DURATION: 52 WK), Route [Carcinogen]: INTRAPERITONEAL, Route [Promoter]: ORAL, Species: MOUSE, Strain/Sex: CD-1/MALE) was “liver: carcinoma”, the outcome (Carcinogen: ETHYLNITROSOUREA, 759-73-9, Doses [Carcinogen]: 20 MG/KG ONCE AT 15 D OF AGE, Doses [Promoter]: 0, 500 PPM IN DRINKING WATER BEGINNING AT 5 WK OF AGE AND CONTINUING TO 51 WK OF AGE (STUDY DURATION: 52 WK), Route [Carcinogen]: INTRAPERITONEAL, Route [Promoter]: ORAL, Species: MOUSE, Strain/Sex: CD-1/FEMALE) was “liver: adenoma, carcinoma” and the outcome (Carcinogen: ETHYLNITROSOUREA, 759-73-9, Doses [Carcinogen]: 20 MG/KG ONCE AT 15 D OF AGE, Doses [Promoter]: 0, 500 PPM IN DRINKING WATER BEGINNING AT 5 WK OF AGE AND CONTINUING TO 51 WK OF AGE (STUDY DURATION: 52 WK), Route [Carcinogen]: INTRAPERITONEAL, Route [Promoter]: ORAL, Species: MOUSE, Strain/Sex: CD-1/MALE) was “liver: carcinoma”. For the same molecule, the outcome (Carcinogen: N-BIS(2-HYDROXYPROPYL)NITROSAMINE, 53609-64-6, Doses [Carcinogen]: 280 MG/100 G/BW ONCE, Doses [Promoter]: 0, 0.05% IN DRINKING WATER FOR 25 WK (STUDY DURATION: 26 WK), Route [Carcinogen]: SUBCUTANEOUS, Route [Promoter]: ORAL, Species: RAT, Strain/Sex: F344/MALE) was “thyroid: neoplasm” and the outcome (Carcinogen: N-METHYL-N-NITROSOUREA, 684-93-5, Doses [Carcinogen]: 30 MG/KG BW ONCE, Doses [Promoter]: 0, 0.5% IN DRINKING WATER FOR DURATION OF STUDY BEGINNING POST CARCINOGEN DOSE(STUDY DURATION: 14 MO), Route [Carcinogen]: INTRAVENOUS, Route [Promoter]: ORAL, Species: RAT, Strain/Sex: LOBUND-WISTAR/MALE) was “lung: carcinoma, prostate/seminal vesicles: tumor”.
In the case of `OCl`, the outcome (Carcinogen: 4-NITROQUINOLINE-1-OXIDE, Doses [Carcinogen]: TOP, Route [Carcinogen]: DERMAL, Route [Promoter]: DERMAL, Species: MOUSE, Strain/Sex: FEMALE) is listed as “integumentary system (skin)”.
For `CCOC(N)=O`, the outcome (Carcinogen: 7,12-DIMETHYLBENZ(A)ANTHRACENE, 57-97-6, Doses [Carcinogen]: 51.2 UG IN 100 UG ACETONE ONCE, Doses [Promoter]: 0, 10% IN ACETONE 2/WK FOR 50 WK BEGINNING 2 WK POST CARCINOGEN DOSE (STUDY DURATION: 52 WK), Route [Carcinogen]: DERMAL, Route [Promoter]: DERMAL, Species: MOUSE, Strain/Sex: HR/HR/MALE,FEMALE) is given as “skin: papilloma”.
For `CCCCCCOc1cc(C)c(O)c(C)c1C`, the outcome (Carcinogen: DIETHYLNITROSAMINE, 55-18-5, N-METHYL-N-NITROSOUREA, 684-93-5, N-BUTYL-N-(4-HYDROXYBUTYL)NITROSAMINE, 3817-11-6, DIMETHY, Carcinogen: DIETHYLNITROSAMINE, 55-18-5, N-METHYL-N-NITROSOUREA, 684-93-5, N-BUTYL-N-(4-HYDROXYBUTYL)NITROSAMINE, 3817-11-6, DIMETHY, Doses [Carcinogen]: 100 MG/KG BW DEN ONCE FOLLOWED BY 20 MG/KG BW MNU 4 TIMES AND 0.05% BBN IN DRINKING WATER DURING FIRST 2 WK THEN 40 MG/K, Doses [Promoter]: 0, 1% IN THE DIET FOR 24 WK BEGINNING 1 DAY POST CARCINOGEN TREATMENT (STUDY DURATION: 28 WK), Route [Carcinogen]: INTRAPERITONEAL, INTRAPERITONEAL, ORAL, SUBCUTANEOUS, ORAL, Route [Carcinogen]: INTRAPERITONEAL, INTRAPERITONEAL, ORAL, SUBCUTANEOUS, ORAL, Route [Promoter]: ORAL, Species: RAT, Strain/Sex: F344/MALE) is given as “tongue: papilloma; forestomach: papilloma” and the outcome (Carcinogen: ETHYLNITROSOURETHANE, 614-95-9, Doses [Carcinogen]: 0.01% IN DRINKING WATER FOR 4 WK, Doses [Promoter]: 0, 0.25% IN DIET FOR 36 WK BEGINNING POST CARCINOGEN TREATMENT (STUDY DURATION: 40 WK), Route [Carcinogen]: ORAL, Route [Promoter]: ORAL, Species: RAT, Strain/Sex: F344/MALE) is given as “forestomach: papilloma, carcinoma”.
For `CCOc1ccc2c(c1)C(C)=CC(C)(C)N2`, the outcome (Carcinogen: 1,2-DIMETHYLHYDRAZINE, 540-73-8, Doses [Carcinogen]: 20 MG/KG 1/WK FOR 4 WK, Doses [Promoter]: 0, 0.8% IN DIET FOR 36 WK (STUDY DURATION: 40 WK), Route [Carcinogen]: SUBCUTANEOUS, Route [Promoter]: ORAL, Species: RAT, Strain/Sex: F344/MALE) is given as “colon: tumor”, the outcome (Carcinogen: N-BUTYL-N-(4-HYDROXYBUTYL)NITROSAMINE, 3817-11-6, Doses [Carcinogen]: 0.05% IN DRINKING WATER FOR 4 WK, Doses [Promoter]: 0, 0.8% IN DIET FOR 32 WK (STUDY DURATION: 36 WK), Route [Carcinogen]: ORAL, Route [Promoter]: ORAL, Species: RAT, Strain/Sex: F344/MALE) is given as “urinary bladder: papilloma, carcinoma” and the outcome (Carcinogen: N-BUTYL-N-(4-HYDROXYBUTYL)NITROSAMINE, 3817-11-6, Doses [Carcinogen]: 0.05% IN DRINKING WATER FOR 4 WK, Doses [Promoter]: 0, 0.8% IN DIET FOR 32 WK BEGINNING POST CARCINOGEN (STUDY DURATION: 36 WK), Route [Carcinogen]: ORAL, Route [Promoter]: ORAL, Species: RAT, Strain/Sex: F344/MALE) is given as “bladder: papilloma”. For the same molecule, the outcome (Carcinogen: N-ETHYL-N-(HYDROXYETHYL)NITROSAMINE, 13147-25-6, Doses [Carcinogen]: 0.1% IN DRINKING WATER FOR 2 WK, Doses [Promoter]: 0, 0.8% IN DIET FOR 29 WK (STUDY DURATION: 31 WK), Route [Carcinogen]: ORAL, Route [Promoter]: ORAL, Species: RAT, Strain/Sex: F344/MALE) was “kidney: adenoma”.
For `Oc1ccc(F)cc1`, the outcome (Carcinogen: 7,12-DIMETHYLBENZ(A)ANTHRACENE, Doses [Carcinogen]: TOP, Route [Carcinogen]: DERMAL, Route [Promoter]: DERMAL, Species: MOUSE, Strain/Sex: FEMALE) is given as “integumentary system (skin)”.
